Consider three compounds from paper PMC6206206, “Behavioral and Pharmacokinetic Profile of Indole-Derived Synthetic Cannabinoids JWH-073 and JWH-210 as Compared to the Phytocannabinoid Δ^9-THC in Rats” (Frontiers in Neuroscience, 2018).

A short description of data set [1]: Serum levels of Δ^9-THC and its metabolites after sc. administration (GC-MS). To be noted: after Δ^9-THC 3 mg/kg sc.; for detectability in serum over the measurement intervals: 30 min, 1, 2, 4, 8, 24 h; for maximum serum concentration (Mean ± SEM): n = 6.
In data set [2] the test system is Wistar rats. In words: Open field test (locomotor activity, thigmotaxis, time in center). Type of data set: in vivo. Conditions: for locomotion in 5 min time intervals (open field): 1 h after administration, vs vehicle. As to the method:
(§1) All behavioral experiments were performed 1 h after sc. drugs administration.
A square black plastic open field arena (68 × 68 × 30 cm) was placed in a soundproof and diffusely lit room. Each of animals was placed into the center of the arena, in a novel unfamiliar environment, and 1 h after drug administration the behavior was video-recorded for 30 min using the system EthoVision Color pro v. 3.0 (Noldus, NL). Locomotor activity was subsequently analyzed within 5 min blocks/time intervals (1–6). The calculation of the data was performed in the EthoVision software and corrected (smoothed) for movement deviations of < 3 cm. Initially total distance traveled per time block was calculated and data were plotted in the graphs. To evaluate the spatial characteristics of the locomotor activity such as thigmotaxis and time spent in the center of arena, the arena was virtually divided into 5 × 5 identical square zones with 16 located peripherally and nine centrally. Frequency (f) of appearances of the animal in different zones of the arena was used to calculate thigmotaxis (i) (i = ∑fperipheralzones / ∑fallzones) which is a number (value varying from 0 to 1) indicating the probability of appearance in peripheral zones. Time spent in the center of the arena (Tcenter) was calculated Tcenter = ∑timecentralzones (Balikova et al., [2014]; Horsley et al., [2016]; Palenicek et al., [2016]; Tyls et al., [2016]; Hlozek et al., [2017]; Sichova et al., [2017]; Stefkova et al., [2017]).
To evaluate the effect on the locomotion measured in 5 min intervals, two-way repeated measures ANOVA analysis (factor 1: drug; factor 2: time intervals) was used in software system IBM SPSS version 22. Significant main effects and interaction two-way repeated measures ANOVAs were followed with pairwise comparisons using independent t-test. For repeated measures ANOVAs, where Mauchly's test of sphericity was significant, Greenhouse-Geisser [Greenhouse-Geisser estimate of sphericity (ε) < 0.75 or Huynh-Feldt (ε) >0.75] correction are reported. Degrees of freedom were rounded to whole number for presentational purposes. For independent t-test, where Levene's test for equality of variances was significant, statistics corrected for unequal variances are given p < 0.05 (two tailed) was considered the minimal criterion for statistical significance. For multiple comparisons, t-test was used with Bonferroni correction. The total length of the trajectory over 30-min, thigmotaxis and time in the center, ASR, habituation and PPI were analyzed by one-way ANOVA analysis by using software STATISTICA version 9.0. Where appropriate, ANOVA analyses were followed by the Tukey post-hoc test. Statistical significance was set at p < 0.05 for all analyses.

Data set [3] relates to Wistar rats. In words: Prepulse inhibition (PPI) of acoustic startle response (ASR). Type of data set: in vivo. Conditions: for alteration of ASR or PPI by acute treatment: all doses tested, sc., 1 h after administration. As to the method:
as §1
The PPI of ASR took place in two ventilated startle chambers (SR-LAB, San Diego Instruments, California, USA) which were calibrated to ensure equivalent stabilimeter sensitivity between the chambers. The test consists of acclimatization and two sessions, as previuosly described (Direnberger et al., [2012]; Palenicek et al., [2016]; Tyls et al., [2016]; Hlozek et al., [2017]; Sichova et al., [2017]; Stefkova et al., [2017]). Briefly, acclimatization was performed 2 days before the test, when drug-free rats were habituated in 5 min session with five presentations of pulse alone stimuli (115 dB/20 ms) over background white noise (75 dB). On the day of test, the compounds or vehicle were administered sc. 1 h prior to PPI/ASR testing. After acclimatization (5 min with 75 dB background noise), the test started with a short session of six 40 ms 125 dB pulse trials to establish baseline ASR. It was followed by the second session consisting of trials presented in a pseudorandom order: (1) single pulse alone: 40 ms 125 dB; (2) trial of prepulse-pulse: 20 ms prepulse of 83 dB presented 30, 60, and 120 ms (average 70 ms) before 40 ms 125 dB pulse; (C) 60 ms no stimulus. Finally, six […] 125 dB pulse trials were delivered. Habituation was calculated by the percentage reduction in ASR from the initial six, to the final six pulse trials. PPI was calculated as: [100–(mean prepulse–pulse trials/mean pulse alone trials)^*100]. ASR was derived from mean pulse alone trials. Animals with an AVG response lower than 10 were excluded from further analysis as non-responders.
To evaluate the effect on the locomotion measured in 5 min intervals, two-way repeated measures ANOVA analysis (factor 1: drug; factor 2: time intervals) was used in software system IBM SPSS version 22. […] The total length of the trajectory over 30-min, thigmotaxis and time in the center, ASR, habituation and PPI were analyzed by one-way ANOVA analysis by using software STATISTICA version 9.0. […]

In data set [4] the test system is cannabinoid CB1 receptors. Conditions: cited from earlier work.
A further data set concerns mice. Conditions: 3–30 mg/kg; ref Marshell et al., 2014; cited from earlier work.
Data set [5] can be described thus: Serum levels of JWH-073 and JWH-210 after sc. administration (LC-MS).
Where [6] appears, read: 3 mg/kg sc., vs control, p < 0.01.

The term Tmax denotes the time from dosing to the highest level. As usually defined, the Ki is a measure of affinity in units of concentration, obtained from inhibition or displacement.

On to `CCCCCc1cc(O)c2c(c1)OC(C)(C)[C@@H]1CCC(C(=O)O)=C[C@@H]21` [THC-COOH], for which the “detectability in serum over the measurement intervals” value in data set [1] is “detectable as Δ^9-THC at all intervals”. Further, in data set [1] (rat serum), the “time of maximum serum concentration” value stood at 1 h and the “maximum serum concentration (Mean ± SEM)” value amounted to 10.5 ± 7.27 ng/mL.
For the compound `CCCCn1cc(C(=O)c2cccc3ccccc23)c2ccccc21` [JWH-073, (1-butylindol-3-yl)-naphthalen-1-ylmethanone], the “locomotion in 5 min time intervals (open field)” value in the data set with Wistar rats [2] (0.1 mg/kg sc.) is “significantly increased locomotor activity at the 5-10 and 10-15 min time blocks”; in the data set with Wistar rats [2] (0.5 mg/kg sc.), “increased locomotion at 0–5, 5–10, 10–15, and 20–25 min onset”; in the data set with Wistar rats [2] (5 mg/kg sc.), “reduced the locomotor activity at 15–20 min time block”. The “total length of the trajectory over 30-min (total locomotor activity)” value with Wistar rats [2] (0.5 mg/kg sc., vs control group, p < 0.05) is listed as “significantly increased locomotor activity”. The “thigmotaxis (probability of appearance in peripheral zones)” value in the data set on Wistar rats [2] (0.1, 0.5 and 5 mg/kg sc.) was “neither JWH-073 nor JWH-210 modified the thigmotaxis”. The “time spent in the central zones of the open field” value in the data set with Wistar rats [2] (0.1, 0.5 and 5 mg/kg sc.) was “neither JWH-073 nor JWH-210 modified”. For the same compound, the “alteration of ASR or PPI by acute treatment” value in the data set with Wistar rats [3] is recorded as “did not find significant alteration”. Also, the “CB1 binding affinity relative to Δ^9-THC (fold higher)” value in data set [4] (vs Δ^9-THC, ref Wiley et al., 1998, Aung et al., 2000, Brents et al., 2012) is recorded as “four-fold higher”. In the data set on mice, the locomotor activity entry is “dose-dependent reduced locomotor activity”. For the same compound, the “detectability in serum over the measurement intervals” value in data set [5] (0.5 mg/kg sc., 30 min, 1, 2, 4, 8, 24 h) is reported as “detectable at all measurement intervals”. For the same compound, in data set [5] (0.5 mg/kg sc., rat serum, n = 8), the “maximum serum concentration (Mean ± SEM)” value was found to be 1.84 ± 0.06 ng/mL. The Tmax in data set [5] (male, Wistar, rat, serum, sc, 0.5 mg/kg) was 4 h. This compound also registered a concentration at 24 h in data set [5] (male, Wistar, rat, serum, subcutaneous, 0.5 mg/kg) of 0.41 ± 0.19 ng/mL.
As to `CCCCCc1cc(O)c2c(c1)OC(C)(C)[C@@H]1CCC(C)=C[C@@H]21` [Δ^9-THC, Δ9-tetrahydrocannabinol], in the data set on Wistar rats [2] (setting [6]), the “thigmotaxis (probability of appearance in peripheral zones)” value is given as “decreased thigmotaxis” and the “time spent in the center of the open field arena” value was “increased time spent in central zone”. For the same compound, in the data set with Wistar rats [2] (1 or 3 mg/kg sc.), the “total trajectory in the open field test” value was “did not affect the total trajectory” and the “locomotion in 5 min time intervals (open field)” value is “neither a main effect of drug nor drug × time interval interaction were found”. In addition, the “prepulse inhibition (PPI), post-hoc” value with Wistar rats [3] (1 mg/kg sc., p = 0.06) was “slight not significant decrease of PPI”. The “alteration of ASR or PPI by acute treatment” value with Wistar rats [3] is reported as “did not find significant alteration”. For the same compound, in data set [4] (ref Huffman et al., 2005, read-out: Ki, affinity for central and peripheral cannabinoid CB1 receptors), the inhibitory constant (Ki) was 41 ± 2 nM. The “detectability in serum over the measurement intervals” value in data set [1] is reported as “detectable as Δ^9-THC at all intervals”. In addition, in data set [1] (rat serum), the “time of maximum serum concentration” value was 1 h, the “time of second serum peak” value is recorded as 8 h and the “maximum serum concentration (Mean ± SEM)” value is 12.1 ± 3.06 ng/mL.
